Experimental data taken from US20260183302A1, “PDK1 REGULATORY COMPOUND AND COMPOSITION CONTAINING THE SAME” (PROVIBIO CO., LTD., priority 2024, published 2026).

Legend:
[1] = tested on: Human B Lymphocyte cell line, SU-DHL-8; test: Relative cell viability, SU-DHL-8 (CCK-8); type: cell-based; conditions: 48 hours, untreated (DMSO) = 100%
Protocol: Human-derived B lymphoma cell line SU-DHL-8 (Cat. #CRL-2961) purchased from ATCC was cultured in RPMI-1640 medium containing 10% FBS, 100 U/mL penicillin, and 100 μg/mL streptomycin.
The cell culture medium was then harvested, centrifuged at 1,300 rpm for 5 minutes, and the supernatant was removed. The cells were resuspended in the same medium and dispensed into a 96-well plate (Costar 96-well cell culture plate, Corning) at 90 μL per well, resulting in the conditions specified in Table 5.
Then, 10 μL of CCK-8 was added to each well, and the plates were incubated again at 37° C. in a 5% CO2 incubator for 4 hours.
In other words, when the survival rate of untreated cells (DMSO) is set at 100%, the relative cell survival rate in each group treated with the drug at different concentrations is indicated.

[2] = tested on: T cells isolated from mouse spleens; test: T cell proliferation inhibition (CFSE flow cytometry, anti-CD3/anti-CD28 stimulation); type: cell-based, C57BL/6 mice; conditions: three days
Protocol: To verify the T cell proliferation inhibitory effect of the compounds according to the present invention, the following experiment was performed based on flow cytometry analysis using carboxyfluorescein diacetate succinimidyl ester (CFSE), a fluorescent dye that binds to intracellular molecules via covalent bonds.
Spleens were extracted from 7-week-old C57BL/6 mice, ground, and then separated into single cells using a strainer (40 μm pore size, SPL). Red blood cells were removed using ACK (Ammonium-Chloride-Potassium) lysis buffer to isolate white blood cells.
Finally, using a MACS Magnetic Stand and LS column, T cells were isolated from the spleen.
The T cells isolated from the spleen were resuspended in 1 mL of free medium (RPMI-1640+200 U/mL penicillin+200 μg/mL streptomycin), and 0.3 μL of CFSE (10 mM) was added. The mixture was incubated at 37° C. for 5 minutes.
Free medium (10 mL) was added to stop the reaction, and the cells were centrifuged to obtain the cell pellet.
RPMI 1640 medium containing 10% FBS, 100 U/mL penicillin, 100 μg/mL streptomycin, and resuspended the cells. The cells were then seeded into a 96-well plate at a density of 2× 10^5 cells per well and activated with CD3 and CD28 antibodies (0.5 μg/mL each) to activate T cells.
The compound diluted in DMSO was added at concentrations of 10 nM, 100 nM, 1 μM, 10 μM, 30 μM, and 50 μM, with three wells per concentration, and cultured at 37° C. and 5% CO2 for three days. The cells were then analyzed using a FACS Canto instrument.
The proliferation inhibition rate (%) was calculated using the following formula: […]

## Nc1ncccc1C(=O)NCCCCCCCCCCCCN1CC(F)(F)C1 [Compound 122, 2-Amino-N-(12-(3,3-difluoroazetidin-1-yl)dodecyl) nicotinamide]
[1]; SU-DHL-8, 1 μM
  Relative cell viability (%): 31.84%
[1]; SU-DHL-8, 10 μM
  Relative cell viability (%): 31.91%
[1]; SU-DHL-8, 30 μM
  Relative cell viability (%): 32.93%
[1]; SU-DHL-8, 50 μM
  Relative cell viability (%): 35.70%
[2]; concentration 10 nM
  Proliferation inhibition rate (%): 0.00%
[2]; concentration 100 nM
  Proliferation inhibition rate (%): 0.00%
[2]; concentration 1 μM
  Proliferation inhibition rate (%): 80.00%
[2]; concentration 10 μM
  Proliferation inhibition rate (%): 100.00%
[2]; concentration 30 μM
  Proliferation inhibition rate (%): 100.00%
[2]; concentration 50 μM
  Proliferation inhibition rate (%): 100.00%

## Cl.Nc1ncccc1C(=O)NCCCCCCCCCCCCN1CC[C@H](N)C1 [Compound 50, (S)-2-Amino-N-(12-(3-aminopyrrolidin-1-yl)dodecyl) nicotinamide hydrochloride]
[1]; SU-DHL-8, 1 μM
  Relative cell viability (%): 9.20%
[1]; SU-DHL-8, 10 μM
  Relative cell viability (%): 8.18%
[1]; SU-DHL-8, 30 μM
  Relative cell viability (%): 6.18%
[1]; SU-DHL-8, 50 μM
  Relative cell viability (%): 4.31%
[2]; concentration 100 nM
  Proliferation inhibition rate (%): 100.00%
[2]; concentration 1 μM
  Proliferation inhibition rate (%): 100.00%
[2]; concentration 10 μM
  Proliferation inhibition rate (%): 100.00%
[2]; concentration 30 μM
  Proliferation inhibition rate (%): 100.00%
[2]; concentration 50 μM
  Proliferation inhibition rate (%): 100.00%

## Cl.O=C(NCCCCCCCCCCCCN1CCNCC1)c1ccc(-c2ccccc2)o1 [Compound 90, 5-Phenyl-N-(12-(piperazin-1-yl)dodecyl) furan-2-carboxamide hydrochloride]
[1]; SU-DHL-8, 1 μM
  Relative cell viability (%): 7.19%
[1]; SU-DHL-8, 10 μM
  Relative cell viability (%): 5.94%
[1]; SU-DHL-8, 30 μM
  Relative cell viability (%): 2.48%
[1]; SU-DHL-8, 50 μM
  Relative cell viability (%): 1.94%
[2]; concentration 10 μM
  Proliferation inhibition rate (%): 100.00%
[2]; concentration 30 μM
  Proliferation inhibition rate (%): 100.00%
[2]; concentration 50 μM
  Proliferation inhibition rate (%): 100.00%

## CC1(C)CCN(CCCCCCCCCCCCNC(=O)c2cccnc2N)C1 [Compound 22, 2-Amino-N-(12-(3,3-dimethylpyrrolidin-1-yl)dodecyl) nicotinamide]
[1]; SU-DHL-8, 1 μM
  Relative cell viability (%): 6.46%
[1]; SU-DHL-8, 10 μM
  Relative cell viability (%): 2.85%
[1]; SU-DHL-8, 30 μM
  Relative cell viability (%): 2.45%
[1]; SU-DHL-8, 50 μM
  Relative cell viability (%): 1.67%
[2]; concentration 10 nM
  Proliferation inhibition rate (%): −0.80%
[2]; concentration 100 nM
  Proliferation inhibition rate (%): 100.00%
[2]; concentration 1 μM
  Proliferation inhibition rate (%): 100.00%
[2]; concentration 10 μM
  Proliferation inhibition rate (%): 100.00%
[2]; concentration 30 μM
  Proliferation inhibition rate (%): 100.00%
[2]; concentration 50 μM
  Proliferation inhibition rate (%): 100.00%

## Nc1ncccc1C(=O)NCCCCCCCCCCCCN1CCC(Oc2ccncc2)CC1 [Compound 38, 2-Amino-N-(12-(4-(pyridin-4-yloxy)piperidin-1-yl)dodecyl) nicotinamide]
[1]; SU-DHL-8, 1 μM
  Relative cell viability (%): 4.16%
[1]; SU-DHL-8, 10 μM
  Relative cell viability (%): 3.30%
[1]; SU-DHL-8, 30 μM
  Relative cell viability (%): 1.79%
[1]; SU-DHL-8, 50 μM
  Relative cell viability (%): 1.42%
[2]; concentration 100 nM
  Proliferation inhibition rate (%): 100.00%
[2]; concentration 1 μM
  Proliferation inhibition rate (%): 100.00%
[2]; concentration 10 μM
  Proliferation inhibition rate (%): 100.00%
[2]; concentration 30 μM
  Proliferation inhibition rate (%): 100.00%
[2]; concentration 50 μM
  Proliferation inhibition rate (%): 100.00%

## CC1CNCCN1CCCCCCCCCCCCNC(=O)c1cccnc1N (centres unmarked) [Compound 35, 2-Amino-N-(12-(2-methylpiperazin-1-yl)dodecyl) nicotinamide]
[1]; SU-DHL-8, 1 μM
  Relative cell viability (%): 1.18%
[1]; SU-DHL-8, 10 μM
  Relative cell viability (%): 0.64%
[1]; SU-DHL-8, 30 μM
  Relative cell viability (%): 0.42%
[2]; concentration 100 nM
  Proliferation inhibition rate (%): 100.00%
[2]; concentration 1 μM
  Proliferation inhibition rate (%): 100.00%
[2]; concentration 10 μM
  Proliferation inhibition rate (%): 100.00%
[2]; concentration 30 μM
  Proliferation inhibition rate (%): 100.00%
[2]; concentration 50 μM
  Proliferation inhibition rate (%): 100.00%

## CC1CN(CCCCCCCCCCCCNC(=O)c2cccnc2N)CC(C)O1 (centres unmarked) [Compound 21, 2-Amino-N-(12-(2,6-dimethylmorpholino)dodecyl) nicotinamide]
[1]; SU-DHL-8, 1 μM
  Relative cell viability (%): 9.64%
[1]; SU-DHL-8, 10 μM
  Relative cell viability (%): 7.68%
[1]; SU-DHL-8, 30 μM
  Relative cell viability (%): 3.70%
[2]; concentration 100 nM
  Proliferation inhibition rate (%): 100.00%
[2]; concentration 1 μM
  Proliferation inhibition rate (%): 100.00%
[2]; concentration 10 μM
  Proliferation inhibition rate (%): 100.00%
[2]; concentration 30 μM
  Proliferation inhibition rate (%): 100.00%
[2]; concentration 50 μM
  Proliferation inhibition rate (%): 100.00%

## Nc1ncccc1C(=O)NCCCCCCCCCCCCN1CC=CC1 [Compound 129, 2-amino-N-(12-(2,5-dihydro-1H-pyrrol-1-yl)dodecyl) nicotinamide]
[1]; SU-DHL-8, 1 μM
  Relative cell viability (%): 34.26%
[1]; SU-DHL-8, 10 μM
  Relative cell viability (%): 33.99%
[1]; SU-DHL-8, 30 μM
  Relative cell viability (%): 35.05%
[1]; SU-DHL-8, 50 μM
  Relative cell viability (%): 34.27%
[2]; concentration 10 nM
  Proliferation inhibition rate (%): 0.00%
[2]; concentration 100 nM
  Proliferation inhibition rate (%): 90.00%
[2]; concentration 1 μM
  Proliferation inhibition rate (%): 100.00%
[2]; concentration 10 μM
  Proliferation inhibition rate (%): 100.00%
[2]; concentration 30 μM
  Proliferation inhibition rate (%): 100.00%
[2]; concentration 50 μM
  Proliferation inhibition rate (%): 100.00%

## CC1CCCN(CCCCCCCCCCCCNC(=O)c2cccnc2N)CC1 (centres unmarked) [Compound 39, 2-Amino-N-(12-(4-methylazepan-1-yl)dodecyl) nicotinamide]
[1]; SU-DHL-8, 1 μM
  Relative cell viability (%): 11.48%
[1]; SU-DHL-8, 10 μM
  Relative cell viability (%): 8.41%
[1]; SU-DHL-8, 30 μM
  Relative cell viability (%): 6.24%
[1]; SU-DHL-8, 50 μM
  Relative cell viability (%): 4.27%
[2]; concentration 100 nM
  Proliferation inhibition rate (%): 100.00%
[2]; concentration 1 μM
  Proliferation inhibition rate (%): 100.00%
[2]; concentration 10 μM
  Proliferation inhibition rate (%): 100.00%
[2]; concentration 30 μM
  Proliferation inhibition rate (%): 100.00%
[2]; concentration 50 μM
  Proliferation inhibition rate (%): 100.00%

## Cc1ccc(C2CCN(CCCCCCCCCCCCNC(=O)c3cccnc3N)CC2)cc1 [Compound 55, 2-Amino-N-(12-(4-(p-tolyl)piperidin-1-yl)dodecyl) nicotinamide]
[1]; SU-DHL-8, 1 μM
  Relative cell viability (%): 9.36%
[1]; SU-DHL-8, 10 μM
  Relative cell viability (%): 4.92%
[1]; SU-DHL-8, 30 μM
  Relative cell viability (%): 1.10%
[1]; SU-DHL-8, 50 μM
  Relative cell viability (%): 0.97%
[2]; concentration 100 nM
  Proliferation inhibition rate (%): 100.00%
[2]; concentration 1 μM
  Proliferation inhibition rate (%): 100.00%
[2]; concentration 10 μM
  Proliferation inhibition rate (%): 100.00%
[2]; concentration 30 μM
  Proliferation inhibition rate (%): 100.00%
[2]; concentration 50 μM
  Proliferation inhibition rate (%): 100.00%

## CC(C)N1CCN(CCCCCCCCCCCCNC(=O)c2cccnc2N)CC1 [Compound 104, 2-Amino-N-(12-(4-isopropylpiperazin-1-yl)dodecyl) nicotinamide]
[2]; concentration 10 nM
  Proliferation inhibition rate (%): 100.00%
[2]; concentration 100 nM
  Proliferation inhibition rate (%): 100.00%
[2]; concentration 1 μM
  Proliferation inhibition rate (%): 100.00%
[2]; concentration 10 μM
  Proliferation inhibition rate (%): 100.00%
[2]; concentration 30 μM
  Proliferation inhibition rate (%): 100.00%
[2]; concentration 50 μM
  Proliferation inhibition rate (%): 100.00%

## Nc1ncccc1C(=O)NCCCCCCCCCCCCN1CCN(C=O)CC1 [Compound 97, 2-amino-N-(12-(4-formylpiperazin-1-yl)dodecyl) nicotinamide]
[2]; concentration 1 μM
  Proliferation inhibition rate (%): 100.00%
[2]; concentration 10 μM
  Proliferation inhibition rate (%): 100.00%
[2]; concentration 30 μM
  Proliferation inhibition rate (%): 100.00%
[2]; concentration 50 μM
  Proliferation inhibition rate (%): 100.00%

## CN1CCN(CCCCCCCCCCCCNC(=O)c2ccncc2Cl)CC1 [Compound 199, 3-Chloro-N-(12-(4-methylpiperazin-1-yl)dodecyl) isonicotinamide]
[2]; concentration 10 nM
  Proliferation inhibition rate (%): 0.00%
[2]; concentration 100 nM
  Proliferation inhibition rate (%): 0.00%
[2]; concentration 1 μM
  Proliferation inhibition rate (%): 0.00%
[2]; concentration 10 μM
  Proliferation inhibition rate (%): 40.00%
[2]; concentration 30 μM
  Proliferation inhibition rate (%): 100.00%
[2]; concentration 50 μM
  Proliferation inhibition rate (%): 100.00%

## CN(CCCCCCCCCCCCNC(=O)c1cccnc1N)C(C)(C)C [Compound 53, 2-Amino-N-(12-(tert-butyl(methyl)amino)dodecyl) nicotinamide]
[2]; concentration 100 nM
  Proliferation inhibition rate (%): 100.00%
[2]; concentration 1 μM
  Proliferation inhibition rate (%): 100.00%
[2]; concentration 10 μM
  Proliferation inhibition rate (%): 100.00%
[2]; concentration 30 μM
  Proliferation inhibition rate (%): 100.00%
[2]; concentration 50 μM
  Proliferation inhibition rate (%): 100.00%
